Experimental data from patent US20260083698A1, “Synergistic Stimulation of Mucociliary Clearance to Treat Mucus Obstruction in Cystic Fibrosis and Other Muco-Obstructive Disorders” (The Board of Trustees of the Leland Stanford Junior …, priority 2022, published 2026).

Key:
pig tracheal mucosa = test: Short circuit current (Isc) and conductance, Ussing chamber, pig; conditions: pig tracheal mucosa; sequential 10 μM forskolin, 0.3 μM carbachol, 10 μM benzamil, 20 μM BPO-27, 200 μM niflumic acid
From the text: FIG. 4. Combined agonists inhibit sodium absorption and stimulate anion secretion by surface epithelia. (A) Cartoon of two electrogenic, ion transport pathways across airway apical epithelium: anion secretion increases surface fluid, Na+ absorption decreases surface fluid. The two pathways have opposite effects on fluid depth, but additive effects on short circuit current (Isc) because of their opposite valence and transport directions. (B) Raw trace of Isc across pig tracheal epithelium using Chart 4 software. After reaching a stable, unstimulated Isc (here, >2 h post-mounting), 10 μM forskolin, 0.3 μM carbachol, 10 μM benzamil, 20 μM benzopyrimido-pyrrolo-oxazinedione (BPO-27) and 200 μM niflumic acid were sequentially added at times shown. (C, D) Pig tracheal mucosa: averaged Δ Isc plots over time in response to (C) forskolin alone followed by forskolin+carbachol and (D) reversed order of agonist addition. (E & F) Ferret tracheal mucosa: averaged A Isc plots with same protocol as for pigs. Pig traces (C, D) are based on 10-12 experiments with tissues from 6 to 7 pigs. Ferret traces (E, F) are from 7 experiments with tissues from 5 ferrets.
Combined agonists stimulate epithelial surface anion secretion and inhibit Na^+ absorption. The surface epithelia also modify ASL. FIG. 4A is a cartoon of the main ion flows controlling ASL depth: anion-mediated fluid secretion increases, and Na^+-mediated fluid absorption decreases ASL depth. It was hypothesized that the combined agonists increase ASL depth and thus MCCV by stimulating secretion and inhibiting absorption (see also FIG. 6). […] With no counterbalancing absorption ASL depth is predicted to increase (dotted gold line in FIG. 6A) unless MCCV increases.
Inhibiting Na+ absorption would increase net fluid accumulation on the surface. […]
Electrophysiology. […] Total tissue conductance was calculated by applying Ohm's law to the Isc deflection resulting from a 1 mV pulse across the tissues every 20 s during the experiment. […]

[1] = system: sheep with induced CF airway disease; test: Tracheal mucus velocity (TMV) in sheep CF model (CFTRinh172 + hNE); type: in vivo; conditions: inhalation, 20 μg Formoterol
Procedure: Briefly, adult sheep are placed in an upright position in a specialized body harness and under local anesthesia the animals are nasally intubated with a standard endotracheal (ET) tube. Tracheal mucus velocity (TMV), the in vivo equivalent of MCCV, is measured by a fluoroscopic technique. Five to seven radiopaque Teflon/bismuth trioxide disks (1 mm in diameter, 0.8-mm in thickness, and 1.8 mg in weight) are insufflated into the mid-portion of the animal's trachea. Once the disks are delivered into the trachea, the cephalad-axial velocity of each individual disk is recorded on videotape from a portable image intensifier unit in-line with the fluoroscope. The mean value of all the disk velocities is calculated for a given time point, with new disks insufflated pat subsequent time points. After baseline values are determined, animals receive by aerosolization 10 mg of CFTRinh172 and TMV measurements are repeated hourly for the following 2 hours. Then the animals receive by aerosolization 1190 mU of human Neutrophil Elastase (hNE) and TMV measurements are repeated hourly for the following 2 hours. […] Methacholine alone was not tested as this will induce severe bronchospasm and compromise the life of the animal. After test agent administration by inhalation, the TMV was measured hourly for 12 hours and at 24 hours.

ex vivo WT pig tracheas = test: ASL height by synchrotron-based phase contrast imaging; conditions: 10 μM formoterol (T30-T50); synergy agonists (T65-T85)
Procedure: ASL heights were determined in pig tracheal preparations using synchrotron-based phase contrast imaging (PCI). The synchrotron beamline produces enough parallel spatial coherence X-ray to increase the contrast between airway lumen and ASL layer by PCI. When X-rays pass through the intact tracheal preparation, the difference in refractive index between ASL and airway lumen results in a phase shift of X-rays that causes a distinctive interference pattern shown on the charge-coupled device (CCD) detector as variations in X-ray intensity.

WT piglet tracheas = test: Mucociliary clearance velocity (MCCV) in ex vivo WT piglet tracheas; design: species or system pig
Procedure: MCCV in tracheas was measured from 2 to 5 days old WT piglets (see “Methods” section for details). […] The 8 piglet tracheas were divided into two groups and tested 4 by applying forskolin first and 4 by applying carbachol first, followed by the combined agonists.
These experiments used forskolin to elevate cAMP.
Pig tissues. Newborn WT piglet tracheas (2-5 days old) were directly obtained at the swine facility of UC Davis or from the laboratory of David Stoltz, University of Iowa, via overnight priority express. Postmortem (<1 h) tracheas from young adult Yorkshire pigs (30-50 kg) and 5-12 months old M. putorius ferrets were from animal facilities at Stanford and Gilroy/CA. All methods using animal tracheae were carried out in accordance with relevant guidelines and regulations of Stanford University and animal protocols were approved (Stanford IACUC protocol#: 10,048). Piglet tracheas were shipped in DMEM cell culture medium, other animal tissues were transported to the laboratory in cold PhysioSol™ solution (Hospira, IL/USA) and then transferred to icecold Krebs Ringer bicarbonate (KRB) buffer gassed with 95% O2 and 5% CO2 and kept at 4° C. until use. The KRB buffer contained (in mM): 115 NaCl, 25 NaHCO3, 2.4 K2HPO4, 0.4 KH2PO4, 1.2 MgCl2, 1.2 CaCl2, 10 glucose, and 1.0 μM indomethacin, adjusted to pH 7.2 and ˜290 mOsm at room temperature.
MCCV measurement. Details are in the previous reports (16,59,60). Briefly, each whole length ferret or piglet trachea, or a CF tracheal trim, was cut open along the mid-dorsal line and mounted mucosal side up onto a Sylgard elastomer platform. […] The prepared trachea was placed into a sealed, humidified chamber bubbled continuously with gas (95%/5%-O2/CO2) with the serosal surface bathed with KRB buffer±drugs. […] Then excess apical solution was drained, and tissue was incubated for an additional 10 min before starting baseline measurements of MCCV. Drugs were added by bath replacement with pre-warmed bath+drug(s). Summary MCCV data are reported as a single number and based on the averaged MCCV during the last 20 min of the treatment period unless stated otherwise.
MCCV (all values are in mm/min) was then measured for 90-120 min and plotted as MCCV vs time and agonist(s) in FIG. 8.
It was hypothesized that the synergistic MCC induced by β-adrenergic and cholinergic agonists involved ENaC inhibition.

piglet tracheal rings = test: Airway narrowing: lumen area of thin sliced tracheal rings, methacholine; design: species or system pig; conditions: 0.3 or 0.6 mM methacholine alone
Procedure: Airway smooth muscle contraction measurement. Two methods were used to measure tracheal smooth muscle contraction. One is designed to measure airway narrowing using thin sliced tracheal rings. Piglet or ferret tracheal ring preparations of ˜2 mm were submerged and securely pinned on a Sylgard-lined Petri dish filled with KRB solution at 37° C. and pH 7.4. Digital images of tracheal ring contractions in response to agonists for 1-10 min intervals were recorded with a Nikon digital camera and the inner lumen surface area of the tracheal ring was calculated using ImageJ (NIH, MD/USA). The other method is using a force transducer. One end of an isolated ferret trachealis muscle bundle was secured in a Sylgard-lined Petri dish filled with KRB solution and the other end was attached by 26-gauge wire to a previously calibrated strain gauge (series 400A force transducer system, Cambridge Technology, MA/USA).

Compound: O=C(O)c1cccnc1Nc1cccc(C(F)(F)F)c1 [niflumic acid]
- effect on Isc, raw trace (pig tracheal mucosa): steep drops in Isc and conductance

Compound: COc1ccc(CC(C)NCC(O)c2ccc(O)c(NC=O)c2)cc1 (centres unmarked) [formoterol]
- effect on TMV compared to the control [1]: barely had any effect
- average rate of ASL height increase (ex vivo WT pig tracheas): 1.7±0.1 μm/min

Compound: NC(=NCc1ccccc1)NC(=O)c1nc(Cl)c(N)nc1N [benzamil]
- increase of baseline MCCV by ENaC inhibition (WT piglet tracheas; 10 μM benzamil vs without benzamil, piglets): ~6 times
- baseline MCCV with benzamil (WT piglet tracheas; 10 μM benzamil, no agonists, piglets): 3.0±0.7 mm/min

Compound: Cn1c(=O)c2c(-c3ccccc3)n3c(c2n(C)c1=O)C(c1ccc(Br)o1)Oc1ccc(C(=O)O)cc1-3 (centres unmarked) [BPO-27, benzopyrimido-pyrrolo-oxazinedione]
- effect on Isc, raw trace (pig tracheal mucosa): steep drops in Isc and conductance

Compound: CC(=O)OC(C)C[N+](C)(C)C (centres unmarked) [methacholine]
- effect on MCCV (WT piglet tracheas; piglet tracheas, 10 μM formoterol or 0.3 μM methacholine alone): only a small increase
- sustained reduction of lumen area (piglet tracheal rings): 20-40%
